Data on 14 compounds can be found in patent US12168659B2, “Thioamide derivative and preparation method and application thereof” (Yunbaiyao Zhengwu Science and Technology (Shanghai) Co., …, priority 2022, dated 2024).

Structures are written as SMILES.

One data set addresses MEK1 (Homo sapiens, UniProt Q02750). Nature of the data set: Raf-MEK-ERK cascade kinase assay using recombinant protein (MEK1). The class given is biochemical. Particulars: 10 μM ATP, active B-Raf (V599E), 30° C. 30 minutes. How it is done: (§1) Experimental purpose: The inhibitory activity of the compounds on MEK1 and MEK2 was measured by performing a Raf-MEK-ERK cascade kinase assay using recombinant protein.
(§2) Experimental method: 2 mg of dephosphorylated myelin basic protein (MBP) was dispersed in a 0.2 M sodium carbonate aqueous solution (pH=9.4). The mixed solution was then coated onto an enzyme-linked immunosorbent assay (ELISA) plate (U-shaped bottom plate) and left to stand overnight at 4° C. […] Compound solutions with serial concentrations were tested in triplicate wells. A mixture of 2 ng of inactivated MEK1 (or 4 ng of MEK2) and 50 ng of inactivated ERK2 was dissolved in a buffer solution (20 mM MOPS [pH=7.4], 0.1% 2-mercaptoethanol, 0.1% BSA) at room temperature, and then treated with the above serial solutions on a flat plate. The plate was covered with 1% bovine serum albumin (BSA) and pre-incubated for 10 minutes. […] After incubation at 30° C. for 30 minutes, phosphorylation of MBP by ERK was detected using peroxidase-labeled anti-phosphorylated MBP antibodies. Data curves were plotted and half maximal inhibitory concentration (IC50) values were calculated using XLFit.

In data set [1] the test system is human colon cancer cells (HCT-15). The data set is described as follows: Anti-proliferative activity, CCK-8 assay, HCT-15. The class given is cell-based. The conditions noted are these: 72 h incubation. How it is done: (§3) Experimental procedure: Sample solutions with a concentration of 20 μM were prepared and serially diluted 5-fold downwards to obtain 10 concentrations: 20000 nM, 4000 nM, 800 nM, 160 nM, 32 nM, 6.4 nM, 1.28 nM, 0.256 nM, 0.0512 nM and 0.01024 nM. The sample solutions were incubated with the above cell lines for 72 h. Then 10 μL of a CCK-8 solution was then added to each well, followed by a further 2 hours incubation. An optical density (OD) value was measured at 450 nm using a fully automated microplate reader. Data were processed using GraphPad Prism 7 to calculate IC50.

Data set [2] deals with human malignant melanoma cells (A375). Nature of the data set: Anti-proliferative activity, CCK-8 assay, A375. The class given is cell-based. Particulars: A-375, 72 h incubation. On the procedure: as §3
For data set [3], the system named is human colon cancer cells (HCT116). Nature of the data set: Anti-proliferative activity, CCK-8 assay, HCT116. The class given is cell-based. Particulars: HCT-116, 72 h incubation. On the procedure:
as §3
In general terms: Tetrazolium dyes change colour on reduction, which living cells bring about.

Data set [4] concerns human prostate cancer cells (PC-3). The data set is described as follows: Anti-proliferative activity, CCK-8 assay, PC-3. The class given is cell-based. Particulars: 72 h incubation. On the procedure:
as §3

A further data set deals with MEK2 (Homo sapiens, UniProt P36507). Nature of the data set: Raf-MEK-ERK cascade kinase assay using recombinant protein (MEK2). The class given is biochemical. Particulars: 10 μM ATP, active B-Raf (V599E), 30° C. 30 minutes. How it is done:
as §1, §2

For data set [5], the system named is human non-small cell lung cancer cells (A549). The data set is described as follows: Anti-proliferative activity, CCK-8 assay, A549. The class given is cell-based. The conditions noted are these: 72 h incubation. How it is done:
as §3

Data set [6] can be described thus: Body weight change of experimental mice in the xenograft study. The conditions noted are these: 3 mg/kg gavage, 30 days.
From the text: Experimental procedure: The study evaluated the inhibitory effect of compounds administered by gavage against human HCT116 subcutaneous xenograft tumors in the BALB/c nude mouse model by measuring tumor size and calculating tumor volume (TV), relative tumor volume (RTV), relative tumor proliferation rate (T/C), and anti-tumor efficacy (TGI).
In data set [7] the test system is human HCT116 subcutaneous xenograft tumors. The data set is described as follows: In vivo anti-tumor assay, subcutaneous xenograft model. Also on record: species or system BALB/c nude mouse. Particulars: 3 mg/kg P.O. QD × 30 days; for Tumor growth inhibition, tumor volume change (FIG. 2): compared to the Trametinib group. How it is done:
Experimental purpose: To evaluate the in vivo efficacy of the compounds in a subcutaneous xenograft model of human cancer cells in a Bagg's albino (BALB/c) nude mouse.
The tumor suppressive efficacy of the compounds was quantified by TGI (%) or relative tumor proliferation rate T/C (%). TGI (%) reflected the tumor growth inhibition rate. TGI(%) was calculated using the following equation: TGI(%)=[1−(mean tumor volume at the end of treatment in a treatment group-mean tumor volume at the start of treatment in the treatment group)/(mean tumor volume at the end of treatment in the solvent control group-mean tumor volume at the start of treatment in the solvent control group)]×100%.
T/C(%) was calculated using the following equation: T/C (%)=TRTV/CRTV×100%, where TRTV was an RTV of the treatment group, and CRTV was an RTV of the negative control group. The RTV was calculated from the results of tumor size measurements according to the following equation: RTV=Vt/V0, where V0 was a mean tumor volume measured on the day of first administration (i.e., day 0), Vt was a mean tumor volume measured on the day indicated, and TRTV and CRTV were obtained from data on the same day.

Sequence of MEK1 (Q02750 whole entry): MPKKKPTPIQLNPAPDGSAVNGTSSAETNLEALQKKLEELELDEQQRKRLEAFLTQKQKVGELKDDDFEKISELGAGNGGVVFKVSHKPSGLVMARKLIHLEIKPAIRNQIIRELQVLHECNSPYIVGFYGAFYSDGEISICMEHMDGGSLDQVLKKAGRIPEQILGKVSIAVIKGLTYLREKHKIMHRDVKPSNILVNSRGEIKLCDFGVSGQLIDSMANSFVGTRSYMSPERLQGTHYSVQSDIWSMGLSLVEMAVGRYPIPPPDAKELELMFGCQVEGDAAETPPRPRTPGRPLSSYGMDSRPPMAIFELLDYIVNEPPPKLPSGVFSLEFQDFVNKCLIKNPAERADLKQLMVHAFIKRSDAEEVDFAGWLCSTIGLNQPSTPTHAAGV
Sequence of MEK2 (P36507 whole entry): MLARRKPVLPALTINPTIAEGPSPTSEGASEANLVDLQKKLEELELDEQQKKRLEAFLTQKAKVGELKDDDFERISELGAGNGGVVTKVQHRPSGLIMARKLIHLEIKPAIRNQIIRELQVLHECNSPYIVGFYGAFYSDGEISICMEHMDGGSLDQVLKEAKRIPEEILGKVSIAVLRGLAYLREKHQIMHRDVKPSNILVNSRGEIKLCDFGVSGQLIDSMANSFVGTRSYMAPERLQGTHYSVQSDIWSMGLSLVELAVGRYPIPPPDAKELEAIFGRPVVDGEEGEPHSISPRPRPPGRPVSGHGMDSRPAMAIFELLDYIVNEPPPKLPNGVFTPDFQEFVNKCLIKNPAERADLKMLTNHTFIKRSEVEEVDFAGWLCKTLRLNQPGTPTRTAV

By IC50 is commonly meant the concentration that gives 50% inhibition. Take `CC(=S)Nc1cccc(-n2c(=O)n(C)c(=O)c3c(Nc4ccc(I)cc4F)n(C)c(=O)c(C)c32)c1` [Compound 1]: the IC50 was determined as 1.21 nM at MEK1; 15.4 nM in data set [1]; 3.5 nM in data set [2]; 2.9 nM in [3]; 2.4 nM in data set [4]; 1.09 nM on MEK2. Moreover, the midpoint of inhibition in data set [5], the IC50, lay at 2.6 nM.
Take `Cc1c(=O)n(C)c(Nc2ccc(I)cc2F)c2c(=O)n(C3CC3)c(=O)n(-c3cccc(NC(=S)C4CC4)c3)c12` [Compound 6]: the IC50 at MEK1 stood at 1.88 nM; in [1], 13.9 nM; in data set [2], 2.9 nM; in data set [3], 1.6 nM; in [4] it was 2.8 nM; at MEK2 it was 1.24 nM. This compound registered an IC50 in [5] of 3.9 nM.
`CC(=S)Nc1ccc(F)c(-n2c(=O)n(C3CC3)c(=O)c3c(Nc4ccc(I)cc4F)n(C)c(=O)c(C)c32)c1` [Compound 9]: the IC50 is 2.29 nM at MEK1; 21.6 nM in data set [1]; 2.8 nM in [2]; 5.2 nM in data set [3]; 1.9 nM in data set [4]; 2.26 nM at MEK2. Moreover, in [5], the 50% inhibitory concentration (IC50) worked out at 4.4 nM.
Regarding `Cc1c(=O)n(C)c(Nc2ccc(I)cc2F)c2c(=O)n(C3CC3)c(=O)n(-c3cccc(NC(=S)C(C)C)c3)c12` [Compound 7], the IC50 came to 0.95 nM at MEK1; 24.2 nM in data set [1]; 4.3 nM in [2]; 2.7 nM in [3]; 2.1 nM in [4]; 1.01 nM at MEK2. The IC50 in data set [5] was found to be 2.8 nM.
On to `CC(=S)Nc1cccc(-n2c(=O)n(C(C)C)c(=O)c3c(Nc4ccc(I)cc4F)n(C)c(=O)c(C)c32)c1` [Compound 3], for which the IC50 at MEK1 was 0.9 nM; in [1] it was 14.8 nM; in [2] it was 2.5 nM; in [3] it was 2.1 nM; in data set [4], 1.9 nM; at MEK2, 0.98 nM. Besides, the half-inhibitory concentration (IC50) in data set [5] was determined as 1.5 nM.
Take `CC(=S)Nc1cc(F)cc(-n2c(=O)n(C3CC3)c(=O)c3c(Nc4ccc(I)cc4F)n(C)c(=O)c(C)c32)c1` [Compound 10]: the IC50 on MEK1 stood at 2.01 nM; in data set [1], 14.9 nM; in [2], 1.8 nM; in data set [3] it was 6.4 nM; in [4], 2.3 nM; on MEK2 it was 2.07 nM. In addition, half-maximal inhibition in data set [5] (IC50) was put at 8.5 nM.
Turning to `CC(=S)Nc1cccc(-n2c(=O)n(C3CCCC3)c(=O)c3c(Nc4ccc(I)cc4F)n(C)c(=O)c(C)c32)c1` [Compound 4], the IC50 on MEK1 was found to be 1.36 nM; in data set [1], 9.8 nM; in [2] it was 3.9 nM; in data set [3], 1.6 nM; in [4], 1.4 nM; on MEK2 it was 1.05 nM. In data set [5], this compound registered a half-maximal inhibitory concentration (IC50) of 2.4 nM.
For `Cc1c(=O)n(C)c(Nc2ccc(I)cc2F)c2c(=O)n(C3CC3)c(=O)n(-c3cccc(NC(=S)CO)c3)c12` [Compound 8], the “Weight loss at the end of the experiment / toxicity (FIG. 1)” value in [6] was “toxicity of Trametinib was higher than that of compounds 2, 8 and 12”. Also, the IC50 was 1.57 nM on MEK1; 25.8 nM in data set [1]; 4.7 nM in [2]; 4.2 nM in data set [3]; 2.4 nM in data set [4]; 2.08 nM at MEK2. This compound came in with an IC50 in data set [5] of 5.8 nM. In [7], the “T/C (relative tumor proliferation rate)” value amounted to 8.17%. For the same compound, the “TGI (tumor growth inhibition rate)” value in [7] is 100.32%. Besides, in [7], the “Tumor volume (Day 30)” value came out at 140 ± 26 mm^3. In [7], the “Tumor growth inhibition, tumor volume change (FIG. 2)” value is “better inhibitory effects”.
`CCC(=S)Nc1cccc(-n2c(=O)n(C3CC3)c(=O)c3c(Nc4ccc(I)cc4F)n(C)c(=O)c(C)c32)c1` [Compound 5]: the IC50 in data set [1] is 20.1 nM; in [2] it was 2.6 nM; in data set [3], 3.8 nM; in data set [4], 3.3 nM; on MEK2 it was 1.19 nM; in data set [5], 3.6 nM.
For `CC(=S)Nc1cc(-n2c(=O)n(C3CC3)c(=O)c3c(Nc4ccc(I)cc4F)n(C)c(=O)c(C)c32)ccc1F` [Compound 11], the IC50 on MEK1 was found to be 1.37 nM; in data set [1], 21.8 nM; in [2], 2.4 nM; in data set [3], 3.1 nM; in [4], 2.7 nM; on MEK2, 1.54 nM. This compound also returned an IC50 in data set [5] of 3.4 nM.
`CC(=S)Nc1cccc(-n2c(=O)n(C3CC3)c(=O)c3c(Nc4ccc(I)cc4F)n(C)c(=O)c(C)c32)c1` [Compound 2]: in [6], the “Weight loss at the end of the experiment / toxicity (FIG. 1)” value is “toxicity of Trametinib was higher than that of compounds 2, 8 and 12”. Moreover, the IC50 on MEK1 turned out to be 1.83 nM; in data set [1] it was 12.6 nM; in [2] it was 3.1 nM; in data set [3], 2.6 nM; in data set [4], 3.6 nM; on MEK2, 2.13 nM. Besides, the IC50 in data set [5] worked out at 3.1 nM. In [7], the “T/C (relative tumor proliferation rate)” value amounted to 9.62%. In addition, the “TGI (tumor growth inhibition rate)” value in data set [7] turned out to be 98.72%. Further, the “Tumor volume (Day 30)” value in [7] is 165 ± 21 mm^3. In data set [7], the “Tumor growth inhibition, tumor volume change (FIG. 2)” value is reported as “better inhibitory effects”.
For `Cc1c(=O)n(C)c(Nc2ccc(I)cc2F)c2c(=O)n(C3CC3)c(=O)n(-c3cccc(NC(=S)CN)c3)c12` [Compound 12], the “Weight loss at the end of the experiment / toxicity (FIG. 1)” value in data set [6] is “toxicity of Trametinib was higher than that of compounds 2, 8 and 12”. Further, the IC50 on MEK1 is 1.51 nM; in data set [1] it was 22.7 nM; in data set [2], 3.1 nM; in [3], 3.6 nM; in data set [4] it was 2.3 nM; at MEK2 it was 2.13 nM. In addition, the half-maximal inhibitory concentration (IC50) in data set [5] amounted to 3.1 nM. Also, the “T/C (relative tumor proliferation rate)” value in data set [7] worked out at 7.47%. Moreover, the “TGI (tumor growth inhibition rate)” value in [7] turned out to be 101.08%. Moreover, the “Tumor volume (Day 30)” value in data set [7] stood at 128 ± 19 mm^3. Also, the “Tumor growth inhibition, tumor volume change (FIG. 2)” value in data set [7] is reported as “better inhibitory effects”.
`Cc1c(=O)n(C)c(Nc2ccc(I)cc2F)c2c(=O)n(C3CC3)c(=O)n(-c3cccc(NC(=S)C(=O)O)c3)c12` [Compound 13]: the 50% inhibitory concentration (IC50) at MEK1 turned out to be 2.38 nM; in data set [1], 31.7 nM; in [2] it was 4.2 nM; in data set [3], 5.2 nM; in data set [4], 4.5 nM; at MEK2, 2.64 nM. In data set [5], this compound had an IC50 of 6.4 nM.
As to `CC(=O)Nc1cccc(-n2c(=O)n(C3CC3)c(=O)c3c(Nc4ccc(I)cc4F)n(C)c(=O)c(C)c32)c1` [Trametinib, reference compound], in data set [7], the “TGI (tumor growth inhibition rate)” value turned out to be 89.80%. The “Tumor volume (Day 30)” value in data set [7] is given as 305 ± 34 mm^3. In addition, the IC50 came to 98.3 nM in [1]; 12.5 nM in data set [2]; 32.7 nM in data set [3]; 12.6 nM in data set [4]; 33.2 nM in data set [5].
